Experimental data reported in patent publication US11905294B2, “Imidazo[1,5-a]pyrazine derivatives as PI3Kδ inhibitors” (BEIGENE, LTD., priority 2017, dated 2024).

What was measured:
[1] = Pharmacokinetic properties in Sprague-Dawley rats after intravenous (IV) and oral (PO) administration; type: in vivo; settings: rat; for AUC(0-inf) / clearance / half-life / Vd / Cmax / Tmax / bioavailability: male, Sprague-Dawley, plasma; for Vd: read-out: VdSS
Experimental: III. Pharmacokinetic Properties of Compounds in Sprague-Dawley Rats After Intravenous (IV) and Oral Administrations (PO)
The injection dosing solution was prepared as follows: 1.0 mg of a test compound was weighed and dissolved in 0.32 mL of dimethyl acetamide (DMA). The solution was then further diluted by 0.36 mL of ethanol and 0.32 mL of propylene glycol. The final concentration of the test compound was 1.0 mg·mL^−1.
The oral dosing solution was prepared as follows: 5.0 mg of a test compound was weighed and dispersed in […] of 0.5% methyl cellulose (MC). The final concentration of the test compound is 1 mg·mL^−1.
Male Sprague-Dawley rats (also summarized in Table 2) were housed in solid bottom polypropylene cages with sterilized bedding and receive sterilized diet and sterilized water. The room was controlled and monitored for humidity (targeted mean range 40% to 70%) and temperature (targeted mean range 18° C. to 26° C.) with 10 to 20 air changes/hour. The light cycle was maintained at 12-h light and 12-h dark. Only animals that appeared to be healthy were selected for this study based on overall health, body weight, or other relevant information.
Three rats were given a single IV dose of 1 mg·kg^−1 via tail vein injection and other three rats were given a single oral dose of 5 or 10 mg·kg^−1. The dosing solutions were freshly prepared prior to dose administration. The actual body weights and actual volume injected were recorded accordingly. Four hours after dosing, the rats were allowed to intake food.
Blood samples (˜150 μL) were collected at different times from the jugular vein catheter into EDTA-K2 coated tubes. Whole blood was processed by centrifugation at 3000 g for 10 min. Plasma samples were collected and kept at −80° C. freezer prior to analysis. The blood sampling time was recorded accordingly.
The dose samples of IV and PO were diluted with MeOH: H2O (4:1, v/v) to achieve the concentration of 2 μg·mL^−1, respectively. Then, 2.5 μL of the diluted samples were added with 47.5 μL blank plasma, and then were handled as the plasma sample procedure. An aliquot of 10 μL of the mixture was injected into the LC-MS/MS system.

PI3K (p110γ) = PI3K (p110γ) (Homo sapiens, UniProt P48736); assay: PI3Kγ assay (ADP-Glo Kinase Assay); type: biochemical; settings: recombinant enzyme; IC50 (nM) or max inhibition (%) at 0.5 μM
PI3K (p110α/p85α) = PI3K (p110α/p85α) (Homo sapiens, UniProt P42336); assay: PI3Kα assay (ADP-Glo Kinase Assay); type: biochemical; settings: recombinant enzyme; IC50 (nM) or max inhibition (%) at 0.5 μM
PI3K (p110β/p85α) = PI3K (p110β/p85α) (Homo sapiens, UniProt P42338); assay: PI3Kβ assay (ADP-Glo Kinase Assay); type: biochemical; settings: read-out: Enzyme activity IC50 PI3Kβ
PI3K (p110δ/p85α) = PI3K (p110δ/p85α) (Homo sapiens, UniProt O00329); assay: PI3Kδ assay (ADP-Glo Kinase Assay); type: biochemical; settings: recombinant enzyme; IC50 (nM) or max inhibition (%) at 0.5 μM
In short: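 Recombinant p110δ/p85α with lipid substrate and serially diluted compound, 0.5 hr RT preincubation; ATP-started reaction ran 1 hr at RT. ADP formed read by ADP-Glo luminescence; IC50 from four-parameter logistic fit of residual activity.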

Chain of PI3K (p110γ) (P48736 whole entry): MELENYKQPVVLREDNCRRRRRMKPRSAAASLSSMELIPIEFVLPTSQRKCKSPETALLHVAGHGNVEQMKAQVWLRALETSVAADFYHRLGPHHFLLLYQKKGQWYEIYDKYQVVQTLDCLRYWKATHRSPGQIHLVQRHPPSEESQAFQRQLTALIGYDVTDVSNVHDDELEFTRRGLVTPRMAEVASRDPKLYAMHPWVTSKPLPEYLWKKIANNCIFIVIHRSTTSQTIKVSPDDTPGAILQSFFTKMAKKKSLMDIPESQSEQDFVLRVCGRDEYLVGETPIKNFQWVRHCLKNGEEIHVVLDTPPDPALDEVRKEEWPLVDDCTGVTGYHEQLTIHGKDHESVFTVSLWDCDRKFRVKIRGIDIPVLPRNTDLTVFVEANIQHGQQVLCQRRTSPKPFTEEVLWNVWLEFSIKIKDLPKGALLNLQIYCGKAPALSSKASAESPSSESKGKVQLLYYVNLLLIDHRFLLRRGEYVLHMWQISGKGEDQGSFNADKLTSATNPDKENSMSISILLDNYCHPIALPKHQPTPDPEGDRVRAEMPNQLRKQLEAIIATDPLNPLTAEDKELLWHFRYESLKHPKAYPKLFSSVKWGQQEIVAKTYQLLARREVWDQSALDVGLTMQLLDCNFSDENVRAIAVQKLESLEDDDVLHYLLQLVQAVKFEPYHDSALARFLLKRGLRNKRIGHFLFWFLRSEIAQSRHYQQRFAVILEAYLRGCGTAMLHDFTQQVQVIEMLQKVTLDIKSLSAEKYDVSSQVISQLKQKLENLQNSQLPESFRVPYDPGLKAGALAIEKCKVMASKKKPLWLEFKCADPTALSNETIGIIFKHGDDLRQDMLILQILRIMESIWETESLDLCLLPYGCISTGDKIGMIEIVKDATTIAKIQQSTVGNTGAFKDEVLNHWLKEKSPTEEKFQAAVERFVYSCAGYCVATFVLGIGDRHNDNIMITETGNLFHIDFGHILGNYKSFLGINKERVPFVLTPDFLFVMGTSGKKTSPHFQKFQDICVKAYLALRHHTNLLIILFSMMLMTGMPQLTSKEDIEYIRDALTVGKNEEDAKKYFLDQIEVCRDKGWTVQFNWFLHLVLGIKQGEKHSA
Chain of PI3K (p110β/p85α) (P42338 whole entry): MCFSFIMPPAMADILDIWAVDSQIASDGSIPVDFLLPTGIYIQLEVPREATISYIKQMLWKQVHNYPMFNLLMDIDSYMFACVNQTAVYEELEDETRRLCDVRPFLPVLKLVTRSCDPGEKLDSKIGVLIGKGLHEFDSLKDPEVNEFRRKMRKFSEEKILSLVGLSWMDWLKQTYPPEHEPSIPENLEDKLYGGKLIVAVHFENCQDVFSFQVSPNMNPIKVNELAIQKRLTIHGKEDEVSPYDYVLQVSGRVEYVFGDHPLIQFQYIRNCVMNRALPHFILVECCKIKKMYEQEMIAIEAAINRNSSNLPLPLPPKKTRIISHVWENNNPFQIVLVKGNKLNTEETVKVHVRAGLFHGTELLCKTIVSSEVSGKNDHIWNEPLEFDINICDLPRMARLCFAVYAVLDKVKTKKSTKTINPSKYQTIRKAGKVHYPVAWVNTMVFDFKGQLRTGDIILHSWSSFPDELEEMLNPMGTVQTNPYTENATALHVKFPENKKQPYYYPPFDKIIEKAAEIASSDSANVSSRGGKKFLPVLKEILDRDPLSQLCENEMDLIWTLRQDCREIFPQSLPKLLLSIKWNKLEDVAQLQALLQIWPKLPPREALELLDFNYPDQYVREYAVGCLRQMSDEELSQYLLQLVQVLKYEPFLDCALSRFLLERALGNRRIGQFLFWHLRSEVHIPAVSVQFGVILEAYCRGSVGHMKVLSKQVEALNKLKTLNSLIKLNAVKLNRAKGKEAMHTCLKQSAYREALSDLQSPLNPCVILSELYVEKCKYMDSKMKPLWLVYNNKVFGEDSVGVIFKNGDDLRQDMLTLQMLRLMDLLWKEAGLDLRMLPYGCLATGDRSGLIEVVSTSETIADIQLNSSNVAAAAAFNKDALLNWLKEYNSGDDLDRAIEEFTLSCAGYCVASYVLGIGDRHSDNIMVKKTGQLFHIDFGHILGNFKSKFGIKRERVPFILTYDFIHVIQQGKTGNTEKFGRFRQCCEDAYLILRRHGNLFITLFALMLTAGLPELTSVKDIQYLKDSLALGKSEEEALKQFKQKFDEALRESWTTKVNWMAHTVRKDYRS
Chain of PI3K (p110β/p85α) (P27986 whole entry partner): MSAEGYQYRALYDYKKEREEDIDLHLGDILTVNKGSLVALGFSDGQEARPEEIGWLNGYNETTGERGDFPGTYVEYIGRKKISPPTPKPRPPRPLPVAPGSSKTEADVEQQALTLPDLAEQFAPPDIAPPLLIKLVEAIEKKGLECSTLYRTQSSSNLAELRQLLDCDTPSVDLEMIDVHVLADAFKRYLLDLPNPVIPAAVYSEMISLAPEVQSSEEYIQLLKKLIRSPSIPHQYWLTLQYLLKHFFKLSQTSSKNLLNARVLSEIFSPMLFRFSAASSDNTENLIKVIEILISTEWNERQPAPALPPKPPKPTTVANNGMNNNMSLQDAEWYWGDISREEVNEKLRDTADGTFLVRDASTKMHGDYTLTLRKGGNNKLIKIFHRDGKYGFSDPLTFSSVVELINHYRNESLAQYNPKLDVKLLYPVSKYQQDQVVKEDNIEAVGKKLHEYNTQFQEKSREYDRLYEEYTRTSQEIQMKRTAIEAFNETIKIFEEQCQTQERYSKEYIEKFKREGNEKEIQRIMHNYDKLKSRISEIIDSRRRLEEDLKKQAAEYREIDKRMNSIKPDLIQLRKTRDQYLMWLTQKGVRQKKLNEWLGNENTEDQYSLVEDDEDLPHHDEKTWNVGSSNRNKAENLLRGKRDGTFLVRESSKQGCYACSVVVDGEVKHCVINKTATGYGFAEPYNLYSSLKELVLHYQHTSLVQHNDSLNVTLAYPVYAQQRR
Chain of PI3K (p110δ/p85α) (O00329 whole entry): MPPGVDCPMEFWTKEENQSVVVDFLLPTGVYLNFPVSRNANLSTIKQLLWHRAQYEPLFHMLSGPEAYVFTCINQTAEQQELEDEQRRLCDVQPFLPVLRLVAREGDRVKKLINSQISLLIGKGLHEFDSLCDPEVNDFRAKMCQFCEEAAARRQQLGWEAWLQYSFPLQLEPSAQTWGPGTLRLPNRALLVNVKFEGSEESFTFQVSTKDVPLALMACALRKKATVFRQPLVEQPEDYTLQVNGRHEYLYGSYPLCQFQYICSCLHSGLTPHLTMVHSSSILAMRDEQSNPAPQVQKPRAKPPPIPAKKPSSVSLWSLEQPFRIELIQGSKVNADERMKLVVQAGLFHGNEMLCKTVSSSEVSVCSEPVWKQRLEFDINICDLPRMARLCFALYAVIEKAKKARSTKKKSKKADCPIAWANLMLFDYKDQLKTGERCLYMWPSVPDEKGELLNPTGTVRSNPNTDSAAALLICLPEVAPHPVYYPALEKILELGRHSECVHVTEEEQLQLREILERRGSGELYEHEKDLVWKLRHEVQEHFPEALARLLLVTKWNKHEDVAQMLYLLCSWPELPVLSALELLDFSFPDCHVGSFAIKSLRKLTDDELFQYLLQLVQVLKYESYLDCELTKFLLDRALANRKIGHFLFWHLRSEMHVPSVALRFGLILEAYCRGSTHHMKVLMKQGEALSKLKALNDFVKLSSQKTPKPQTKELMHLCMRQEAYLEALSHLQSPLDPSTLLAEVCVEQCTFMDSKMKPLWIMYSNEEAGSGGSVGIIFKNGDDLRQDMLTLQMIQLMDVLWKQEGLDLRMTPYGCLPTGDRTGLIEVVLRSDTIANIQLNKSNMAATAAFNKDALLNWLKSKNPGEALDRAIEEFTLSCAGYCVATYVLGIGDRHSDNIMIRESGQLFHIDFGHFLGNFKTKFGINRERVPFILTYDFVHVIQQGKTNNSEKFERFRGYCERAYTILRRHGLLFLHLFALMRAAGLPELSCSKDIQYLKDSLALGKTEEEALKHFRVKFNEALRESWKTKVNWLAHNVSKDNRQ
Chain of PI3K (p110δ/p85α) (P27986 whole entry partner): as the sequence (P27986 whole entry partner) above
Chain of PI3K (p110α/p85α) (P42336 whole entry): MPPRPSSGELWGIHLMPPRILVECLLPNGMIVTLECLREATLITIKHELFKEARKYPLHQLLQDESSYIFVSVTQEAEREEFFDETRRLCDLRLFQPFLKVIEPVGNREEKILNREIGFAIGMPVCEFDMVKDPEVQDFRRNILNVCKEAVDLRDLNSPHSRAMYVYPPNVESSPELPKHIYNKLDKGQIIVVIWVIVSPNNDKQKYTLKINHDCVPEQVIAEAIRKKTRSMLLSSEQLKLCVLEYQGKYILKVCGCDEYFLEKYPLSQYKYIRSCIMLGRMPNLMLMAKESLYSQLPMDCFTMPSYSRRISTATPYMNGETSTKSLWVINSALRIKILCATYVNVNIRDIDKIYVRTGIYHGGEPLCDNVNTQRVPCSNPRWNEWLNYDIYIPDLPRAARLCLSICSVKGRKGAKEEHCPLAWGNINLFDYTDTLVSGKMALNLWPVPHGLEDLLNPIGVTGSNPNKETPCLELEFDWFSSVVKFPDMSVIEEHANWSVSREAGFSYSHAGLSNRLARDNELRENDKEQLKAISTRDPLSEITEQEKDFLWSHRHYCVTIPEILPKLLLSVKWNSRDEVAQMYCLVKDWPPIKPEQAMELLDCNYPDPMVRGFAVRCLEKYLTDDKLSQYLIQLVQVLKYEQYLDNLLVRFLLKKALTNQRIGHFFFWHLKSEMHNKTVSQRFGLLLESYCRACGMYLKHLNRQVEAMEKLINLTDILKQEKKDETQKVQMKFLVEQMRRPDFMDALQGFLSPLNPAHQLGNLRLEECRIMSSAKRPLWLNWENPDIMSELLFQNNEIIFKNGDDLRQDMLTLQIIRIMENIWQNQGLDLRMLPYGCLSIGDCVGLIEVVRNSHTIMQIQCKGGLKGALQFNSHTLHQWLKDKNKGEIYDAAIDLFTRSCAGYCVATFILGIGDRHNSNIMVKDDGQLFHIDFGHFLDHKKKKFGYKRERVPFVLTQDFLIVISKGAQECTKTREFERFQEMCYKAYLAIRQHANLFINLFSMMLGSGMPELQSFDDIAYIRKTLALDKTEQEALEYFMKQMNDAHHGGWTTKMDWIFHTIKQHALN
Chain of PI3K (p110α/p85α) (P27986 whole entry partner): as the sequence (P27986 whole entry partner) above

Row | SMILES | AUC(0-inf) ([1]; 1 mg/kg, IV 1 mpk) [ng·h/mL] | clearance ([1]; 1 mg/kg, IV 1 mpk) [mL/min/kg] | half-life ([1]; 1 mg/kg, IV 1 mpk) [h] | Vd ([1]; 1 mg/kg, IV 1 mpk) [L/kg] | AUC(0-inf) ([1]; 5 mg/kg, PO 5 mpk) [ng·h/mL] | Cmax ([1]; 5 mg/kg, PO 5 mpk) [ng/mL] | Tmax ([1]; 5 mg/kg, PO 5 mpk) [h] | half-life ([1]; 5 mg/kg, PO 5 mpk) [h] | bioavailability ([1]; 5 mg·kg^−1, PO 5 mpk vs IV 1 mpk) [%] | IC50 (PI3K (p110γ)) [nM] | IC50 (PI3K (p110α/p85α)) [nM] | IC50 (PI3K (p110β/p85α)) [µM] | IC50 (PI3K (p110δ/p85α)) [nM] | AUC(0-inf) ([1]; 10 mg/kg, PO 10 mpk) [ng·h/mL] | Cmax ([1]; 10 mg/kg, PO 10 mpk) [ng/mL] | Tmax ([1]; 10 mg/kg, PO 10 mpk) [h] | half-life ([1]; 10 mg/kg, PO 10 mpk) [h] | bioavailability ([1]; 10 mg·kg^−1, PO 10 mpk vs IV 1 mpk) [%] | half-life (in words) ([1]; in vivo)
1 | Cc1nc([C@@H](C)c2cc(Cl)c(F)c(C(=O)N[C@H]3CC[C@H](O)CC3)c2OC(C)C)n2ccnc(N)c12 [Compound 60, 3((S)-1-(8-amino-1-methylimidazo[1,5-a]pyrazin-3-yl)ethyl)-5-chloro-6-fluoro-N-((trans)-4-hydroxycyclohexyl)-2-isopropoxybenzamide] | 218 | 76.6 | 0.6 | 3.3 | 159 | 133 | 0.3 | 2 | 14.6 | 6300 | 11000 | 35 | 0.95 |  |  |  |  |  | 
2 | Cc1nc([C@@H](C)c2cc(Cl)c(F)c(C(=O)NCCN3CCN(C)CC3)c2OC(C)C)n2ccnc(N)c12 [Compound 73, (S)-3-(1-(8-amino-1-methylimidazo[1,5-a]pyrazin-3-yl)ethyl)-5-chloro-6-fluoro-2-isopropoxy-N-(2-(4-methylpiperazin-1-yl)ethyl)benzamide] | 194 | 86.6 | 8.2 | 59.4 |  |  |  |  |  | 9500 | 14000 | 14 | 2.8 | 918 | 220 | 1.5 | 5.6 | 34.9 | unexpected long half-life
